Source: patent US20100286220A1, “HNF4alpha ANTAGONISTS AND METHODS OF USE” (Burnham Institute for Medical Research, priority 2009, published 2010)
Entries after “also recorded” stand apart in the source; their conditions may differ.

Columns and labels:
[1] = tested on: endogenous insulin message; assay: Secondary confirmatory assay, endogenous insulin message in T6PNE cells; type: cell-based, human
[2] = HBV surface antigen levels in Huh7 cells transfected with wild-type HBV construct (pWTD); type: cell-based, Hepatitis B virus
Text: (§1) The HBsAg is seen as doublet bands with different glycosylation forms (GP33 and GP36).
(§2) BIM5078 is an HNF4α antagonist and can be useful in treatment of diseases involving HNF4α modulation. There are a number of HNF4α binding sites in the HBV genome, including the enhancer region, the core promoter and the polymerase. BIM5078 can downregulate the core and polymerase, and it has been discovered that it can effectively suppress or eliminate HBV proliferation. Also, the HNF4α binding sites are well-conserved and no mutations of these sites have yet been discovered in the various HBV strains. Thus, targeting HNF4α can circumvent the resistance seen with traditional therapies. […] The ability of the HNF4α antagonist BIM5078 to reduce viral production in Huh7 cells transfected with the wild-type HBV construct (pWTD) was tested. […] The large decrease in the two glycosylation forms of the surface antigen was visualized as doublet bands (FIG. 9).

HBV = assay: as above; type: cell-based, Hepatitis B virus; conditions: GP33 and GP36 doublet bands
Text: as §1, §2

HNF1α transcription = assay: HNF1α transcription; type: cell-based
Method: HNF1α is a downstream target of HNF4α and has a known binding site on the human insulin gene promoter. […] It is unclear whether HNF4α is modulating the insulin promoter directly or indirectly through a downstream target. Overexpression of HNF1α or HNF4α would overcome the repressive effects of BIM5078. The repressive effect of BIM5078 was lost when it was added to T6PNE cells with high levels of induced E47 (FIG. 8). High E47 levels are thought to resemble the normal state of a β-cell while low levels of E47 to simulate the stress condition.

HNF4α = molecular target: T1, HNF4α (Homo sapiens, UniProt P41235); assay: HNF4α subcellular localization; type: cell-based
T1 sequence (P41235 1-474): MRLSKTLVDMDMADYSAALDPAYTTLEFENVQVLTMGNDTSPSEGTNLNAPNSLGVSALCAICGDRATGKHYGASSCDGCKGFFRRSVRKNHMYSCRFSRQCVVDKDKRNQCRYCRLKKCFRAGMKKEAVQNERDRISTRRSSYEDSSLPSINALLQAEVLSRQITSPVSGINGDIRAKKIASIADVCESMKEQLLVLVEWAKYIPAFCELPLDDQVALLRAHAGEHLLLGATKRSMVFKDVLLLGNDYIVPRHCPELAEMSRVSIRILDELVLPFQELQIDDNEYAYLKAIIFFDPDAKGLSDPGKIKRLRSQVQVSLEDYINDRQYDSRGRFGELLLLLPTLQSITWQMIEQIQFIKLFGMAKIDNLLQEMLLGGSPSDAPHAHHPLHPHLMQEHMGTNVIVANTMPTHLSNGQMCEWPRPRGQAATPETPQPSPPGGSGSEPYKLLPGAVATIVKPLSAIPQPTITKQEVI
Text: Many ligands for nuclear receptor subfamilies induce the translocation of their receptors between the cytoplasm and the nucleus.

human PPARγ = molecular target: T2, human PPARγ (Homo sapiens, UniProt P37231); assay: PPAR response element (PPRE)-luciferase reporter assay in HeLa cells; type: cell-based; conditions: PPRE reporter plasmid with or without human PPARγ expression vector
T2 construct: expressed in transfected cells; host or cells: HeLa cells
T2 sequence (P37231 1-505): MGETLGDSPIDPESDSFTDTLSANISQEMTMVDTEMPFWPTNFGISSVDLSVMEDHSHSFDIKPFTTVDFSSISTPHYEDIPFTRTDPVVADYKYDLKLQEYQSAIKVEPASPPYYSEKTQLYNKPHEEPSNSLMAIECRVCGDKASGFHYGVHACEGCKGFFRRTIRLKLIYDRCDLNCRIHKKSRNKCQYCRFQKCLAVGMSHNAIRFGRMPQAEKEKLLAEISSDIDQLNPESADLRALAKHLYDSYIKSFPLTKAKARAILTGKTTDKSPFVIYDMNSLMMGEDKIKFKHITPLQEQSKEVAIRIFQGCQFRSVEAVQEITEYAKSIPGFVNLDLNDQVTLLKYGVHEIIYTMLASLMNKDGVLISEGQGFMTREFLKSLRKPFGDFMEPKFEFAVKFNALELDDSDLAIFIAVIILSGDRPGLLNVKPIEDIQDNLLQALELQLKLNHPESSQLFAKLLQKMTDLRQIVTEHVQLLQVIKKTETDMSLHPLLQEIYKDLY
Method: The core structure of BIM5078, benzimidazole, is related to known PPARγ compounds that functions as agonists or antagonists. BIM5078 was used in a PPAR response element (PPRE)-luciferase reporter assay. HeLa cells were co-transfected with a PPAR response element (PPRE) reporter plasmid and a human PPARγ expression vector. […] Known PPARγ agonists were used as positive controls. The same PPARγ agonist compounds were tested on T6PNE ins-eGFP for their ability to repress the insulin promoter. Known PPARγ agonists are unable to suppress insulin gene transcription. Similarly, other PPAR agonists of the alpha and delta class were also negative in the assay. However, because HNF4α also binds to PPREs, BIM5078's ability to bind HNF4α was further investigated.

[3] = hoFH patients, ezetimibe 10 mg/day added to statin 80 mg/day; cited from earlier work
human insulin promoter = assay: High-throughput screen / confirmatory assay, insulin promoter-GFP (ins-GFP) transgene in T6PNE cells; type: cell-based; conditions: T6PNE ins-eGFP cells
Text: Primary β-cells are in short supply and have a strong tendency to undergo apoptosis when manipulated in culture. Therefore, a β-cell model was used for the studies regarding β-cell growth and differentiation. T6PNE cells were derived from human fetal islets and were engineered to express the transcription factors PDX-1, NeuroD1, and E47, which are all present in the human β-cell. It was observed that induction of E47 upregulates the expression of many genes associated with β-cell function, including insulin. Consistent with what occurs in primary β-cells, it also was observed that E47 induction caused growth arrest in the cell line. Therefore, E47 was […] in T6PNE cells. […] Therefore, expression in the transfunctioned cell can be used as a baseline so both up and down regulators of the insulin promoter can be monitored in the screening assays. […] Insulin expression was monitored and visualized by the ins-GFP transgene. Hits were determined and dependent on the ability to differentiate between a baseline condition and the corresponding positive or negative control. […]
The HTS was performed in a 384-well format where primed T6PNE cells express the ins-GFP transgene and the test compound was added 24 hours later. […] The Images were then analyzed using algorithms (Jeff Price at the Screening Center at the Burnham Institute). […]

In the case of 4-hydroxytamoxifen [reference compound], the “endogenous insulin message with E47 induction” value ([1]; T6PNE cells with inducible E47) is reported as “upregulated in a dose-dependent manner”.

In the case of `Cc1nc2ccccc2n1S(=O)(=O)c1cc([N+](=O)[O-])ccc1Cl` [BIM5078, 1-(2-Chloro-5-nitrophenylsulfonyl)-2-methyl-1H-benzo[d]imidazole], the “repressive effect on insulin expression at high E47” value ([1]; T6PNE cells with high levels of induced E47 (high 4-hydroxytamoxifen)) is reported as “lost”, the actin levels [2] is reported as “no dependence” and the “HBV surface antigen (HBsAg) levels” value (HBV) is reported as “decreased their levels of surface antigen; also recorded: decreased the HBsAg protein expression”. For the same compound, the HNF1α transcription (HNF1α transcription) was “decrease the HNF1α transcription”, the “HNF4α localization upon addition of compound” value (HNF4α) was “localized entirely in the nucleus” and the “activation of PPRE reporter” value (human PPARγ) was “activated the PPRE”.

In the case of `O=C1[C@H](CC[C@H](O)c2ccc(F)cc2)[C@@H](c2ccc(O)cc2)N1c1ccc(F)cc1` [ezetimibe], the “total reduction of LDL-C levels” value [3] is given as 27%.

With `CCCCCCCCCCCCCCCC(=O)O` [palmitic acid] the “insulin promoter activity / insulin gene transcription, effect in words” value (human insulin promoter) was “suppresses the insulin promoter activity in a dose-dependent fashion”.
